Laboratory results as given in US8129417B2, “Substituted octahydrocyclopenta[C]pyrrol-4-amines as calcium channel blockers” (Abbott Laboratories, priority 2008, dated 2012).

Target: human Cav2.2 (Homo sapiens, UniProt Q00975)
Experiment: Assessment of calcium channel activity using FLIPR (Ca2+ influx in IMR32 cells)
Type: cell-based
Conditions: for IC50: 2 μM nifedipine, depolarized with 80 mM KCl; for inhibition at 10 µM: IMR-32, @ 10 μM, 3 minute pre-incubation (*), read-out: percent inhibition
Method in brief: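 IMR32 neuroblastoma cells seeded at 1-1.2×10^5 cells/well and grown 48 h at 37 °C before FLIPR Ca2+ influx read. Percent inhibition at each concentration vs no-inhibitor activity; IC50 by non-linear sigmoidal dose-response fit.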

[1] = 60 minute pre-incubation with compound
[2] = 3 minute pre-incubation with compound (*)

Sequence of human Cav2.2 (Q00975 whole entry): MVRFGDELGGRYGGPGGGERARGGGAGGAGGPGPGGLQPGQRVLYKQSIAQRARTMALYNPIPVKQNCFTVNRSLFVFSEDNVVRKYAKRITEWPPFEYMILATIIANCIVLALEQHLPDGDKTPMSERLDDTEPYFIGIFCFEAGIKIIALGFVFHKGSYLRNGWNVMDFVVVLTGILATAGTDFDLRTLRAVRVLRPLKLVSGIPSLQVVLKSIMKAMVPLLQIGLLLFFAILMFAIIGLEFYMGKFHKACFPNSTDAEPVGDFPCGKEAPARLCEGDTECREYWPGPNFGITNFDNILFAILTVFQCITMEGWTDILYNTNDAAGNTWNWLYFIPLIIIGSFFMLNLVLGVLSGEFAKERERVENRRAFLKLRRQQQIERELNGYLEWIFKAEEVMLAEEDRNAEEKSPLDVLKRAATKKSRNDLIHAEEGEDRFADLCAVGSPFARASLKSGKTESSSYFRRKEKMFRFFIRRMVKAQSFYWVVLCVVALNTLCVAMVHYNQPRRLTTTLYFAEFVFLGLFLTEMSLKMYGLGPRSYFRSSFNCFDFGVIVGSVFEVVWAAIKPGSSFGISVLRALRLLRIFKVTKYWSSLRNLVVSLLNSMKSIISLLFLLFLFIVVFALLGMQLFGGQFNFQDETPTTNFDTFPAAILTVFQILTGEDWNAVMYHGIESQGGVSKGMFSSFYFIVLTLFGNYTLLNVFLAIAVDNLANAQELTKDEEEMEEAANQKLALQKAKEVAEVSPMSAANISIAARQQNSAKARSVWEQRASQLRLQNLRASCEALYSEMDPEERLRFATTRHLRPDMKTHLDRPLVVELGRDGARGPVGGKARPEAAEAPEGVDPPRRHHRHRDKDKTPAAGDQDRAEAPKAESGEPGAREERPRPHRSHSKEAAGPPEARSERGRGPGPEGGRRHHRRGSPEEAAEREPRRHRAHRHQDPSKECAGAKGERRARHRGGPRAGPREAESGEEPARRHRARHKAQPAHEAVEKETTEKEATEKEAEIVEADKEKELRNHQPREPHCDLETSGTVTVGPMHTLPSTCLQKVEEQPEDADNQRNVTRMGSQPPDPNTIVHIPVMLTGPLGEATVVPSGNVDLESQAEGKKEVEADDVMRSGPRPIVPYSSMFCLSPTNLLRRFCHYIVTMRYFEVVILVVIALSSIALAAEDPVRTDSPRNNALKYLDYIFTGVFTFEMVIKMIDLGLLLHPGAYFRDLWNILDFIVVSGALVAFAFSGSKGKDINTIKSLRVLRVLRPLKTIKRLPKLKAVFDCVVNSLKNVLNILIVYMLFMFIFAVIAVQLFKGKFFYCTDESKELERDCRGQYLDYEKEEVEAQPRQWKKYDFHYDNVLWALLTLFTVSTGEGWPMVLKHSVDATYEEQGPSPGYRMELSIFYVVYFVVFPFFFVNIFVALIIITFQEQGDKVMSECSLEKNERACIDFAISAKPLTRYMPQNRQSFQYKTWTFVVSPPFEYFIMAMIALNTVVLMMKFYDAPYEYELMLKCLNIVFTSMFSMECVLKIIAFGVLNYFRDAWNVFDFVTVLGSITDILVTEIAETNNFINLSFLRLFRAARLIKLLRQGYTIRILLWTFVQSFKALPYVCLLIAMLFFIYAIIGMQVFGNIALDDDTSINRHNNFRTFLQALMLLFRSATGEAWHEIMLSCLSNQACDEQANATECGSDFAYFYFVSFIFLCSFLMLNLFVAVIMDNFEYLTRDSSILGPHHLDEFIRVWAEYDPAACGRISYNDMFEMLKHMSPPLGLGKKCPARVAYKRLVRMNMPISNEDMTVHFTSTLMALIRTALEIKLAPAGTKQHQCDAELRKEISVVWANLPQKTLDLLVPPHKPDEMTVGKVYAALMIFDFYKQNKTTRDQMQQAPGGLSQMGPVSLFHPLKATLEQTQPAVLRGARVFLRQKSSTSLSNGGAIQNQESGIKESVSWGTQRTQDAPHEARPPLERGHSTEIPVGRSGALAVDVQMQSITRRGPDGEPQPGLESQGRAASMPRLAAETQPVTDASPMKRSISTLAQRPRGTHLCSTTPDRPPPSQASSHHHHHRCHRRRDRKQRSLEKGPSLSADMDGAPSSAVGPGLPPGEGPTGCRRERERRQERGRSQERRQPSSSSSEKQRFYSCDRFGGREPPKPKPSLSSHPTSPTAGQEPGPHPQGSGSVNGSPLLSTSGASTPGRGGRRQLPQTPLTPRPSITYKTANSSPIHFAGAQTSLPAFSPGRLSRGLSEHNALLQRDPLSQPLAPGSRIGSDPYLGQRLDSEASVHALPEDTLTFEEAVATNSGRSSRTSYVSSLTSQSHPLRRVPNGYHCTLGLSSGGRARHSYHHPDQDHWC
Sequence of human Cav2.2 (P54289 25-946 partner limits assumed): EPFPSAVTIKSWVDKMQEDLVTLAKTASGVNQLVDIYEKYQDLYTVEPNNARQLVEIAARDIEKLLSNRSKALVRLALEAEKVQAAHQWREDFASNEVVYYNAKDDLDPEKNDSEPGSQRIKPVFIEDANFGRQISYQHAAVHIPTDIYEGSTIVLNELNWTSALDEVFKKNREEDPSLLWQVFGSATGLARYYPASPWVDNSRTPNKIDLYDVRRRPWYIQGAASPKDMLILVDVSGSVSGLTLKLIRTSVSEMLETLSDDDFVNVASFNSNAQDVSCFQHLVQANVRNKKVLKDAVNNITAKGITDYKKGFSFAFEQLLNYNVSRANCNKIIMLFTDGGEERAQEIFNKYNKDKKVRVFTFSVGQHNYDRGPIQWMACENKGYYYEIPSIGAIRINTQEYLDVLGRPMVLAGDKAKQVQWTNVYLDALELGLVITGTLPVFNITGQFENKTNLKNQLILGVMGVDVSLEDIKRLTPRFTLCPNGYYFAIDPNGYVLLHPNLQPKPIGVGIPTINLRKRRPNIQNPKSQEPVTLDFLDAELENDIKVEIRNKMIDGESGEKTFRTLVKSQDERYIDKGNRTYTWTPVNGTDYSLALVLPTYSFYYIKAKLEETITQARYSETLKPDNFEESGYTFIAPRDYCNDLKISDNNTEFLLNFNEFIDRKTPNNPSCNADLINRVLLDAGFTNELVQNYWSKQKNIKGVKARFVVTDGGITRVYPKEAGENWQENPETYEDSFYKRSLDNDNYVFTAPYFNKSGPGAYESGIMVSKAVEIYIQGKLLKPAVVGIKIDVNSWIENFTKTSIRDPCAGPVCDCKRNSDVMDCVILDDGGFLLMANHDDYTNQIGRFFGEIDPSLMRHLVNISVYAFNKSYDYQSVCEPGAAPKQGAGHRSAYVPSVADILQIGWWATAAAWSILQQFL
Sequence of human Cav2.2 (P54289 947-1103 partner limits assumed): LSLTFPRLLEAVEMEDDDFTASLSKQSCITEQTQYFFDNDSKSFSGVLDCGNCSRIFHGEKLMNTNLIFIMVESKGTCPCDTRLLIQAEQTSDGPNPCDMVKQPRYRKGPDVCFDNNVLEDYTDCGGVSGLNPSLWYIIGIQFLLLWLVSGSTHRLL
Sequence of human Cav2.2 (P54284 whole entry partner): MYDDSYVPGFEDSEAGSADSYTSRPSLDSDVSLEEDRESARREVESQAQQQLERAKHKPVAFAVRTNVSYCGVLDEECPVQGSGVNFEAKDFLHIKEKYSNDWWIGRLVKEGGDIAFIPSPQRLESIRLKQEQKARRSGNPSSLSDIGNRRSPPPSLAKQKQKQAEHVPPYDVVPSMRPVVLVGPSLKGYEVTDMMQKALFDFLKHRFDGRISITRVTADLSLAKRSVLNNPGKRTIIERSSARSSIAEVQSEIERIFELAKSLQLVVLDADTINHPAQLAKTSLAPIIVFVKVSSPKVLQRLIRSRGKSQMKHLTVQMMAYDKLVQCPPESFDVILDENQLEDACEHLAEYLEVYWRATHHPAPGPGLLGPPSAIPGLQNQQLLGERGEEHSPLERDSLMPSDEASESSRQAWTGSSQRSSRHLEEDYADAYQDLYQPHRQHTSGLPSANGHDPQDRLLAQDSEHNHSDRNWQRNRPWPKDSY

Row | SMILES | IC50 [1] [µM] | other results
1 | O=C(N[C@H]1CC[C@H]2CN(Cc3cccc(F)c3)C[C@H]21)C(C1CCCCC1)C1CCCCC1 [Example 64, 2,2-dicyclohexyl-N-[(3aS,4S,6aR)-2-(3-fluorobenzyl)octahydrocyclopenta[c]pyrrol-4-yl]acetamide] | 1.3 | –
2 | O=C(N[C@@H]1CC[C@H]2CN(S(=O)(=O)c3cccc(C(F)(F)F)c3)C[C@H]21)[C@@H]1CCCCN1 [Example 398, (2S)—N-((3aS,4R,6aR)-2-{[3-(trifluoromethyl)phenyl]sulfonyl}octahydrocyclopenta[c]pyrrol-4-yl)piperidine-2-carboxamide] | 3.25 | –
3 | CC(C)(C)C[C@H](NS(C)(=O)=O)C(=O)N[C@H]1CC[C@@H]2CN(Cc3ccc(C(F)(F)F)cc3)C[C@@H]21 [Example 519, 4-methyl-N^2-(methylsulfonyl)-N^1-{(3aR,4S,6aS)-2-[4-(trifluoromethyl)benzyl]octahydrocyclopenta[c]pyrrol-4-yl}-L-leucinamide] | 5.14 | –
4 | CC(C)C(C(=O)N[C@H]1CC[C@@H]2CN(Cc3cccc(C(F)(F)F)c3)C[C@@H]21)C(C)C [Example 305, 2-isopropyl-3-methyl-N-{(3aR,4S,6aS)-2-[3-(trifluoromethyl)benzyl]octahydrocyclopenta[c]pyrrol-4-yl}butanamide] | 3.51 | –
5 | CC(C)C(C(=O)N[C@H]1CC[C@@H]2CN(Cc3ccccc3C(F)(F)F)C[C@@H]21)c1ccccc1 (stereo partly drawn) [Example 99, 3-methyl-2-phenyl-N-{(3aR,4S,6aS)-2-[2-(trifluoromethyl)benzyl]octahydrocyclopenta[c]pyrrol-4-yl}butanamide] | – | IC50 [2]: 4.8 µM
6 | CC(C)(C(=O)N[C@H]1CC[C@@H]2CN(Cc3ccccc3)C[C@@H]21)c1ccccc1 [Example 47, N-[(3aR,4S,6aS)-2-benzyloctahydrocyclopenta[c]pyrrol-4-yl]-2-methyl-2-phenylpropanamide] | – | IC50 [2]: 15.6 µM
7 | C[C@H](C(=O)N[C@H]1CC[C@@H]2CN(Cc3ccccc3)C[C@@H]21)c1ccccc1 [Example 38, (2S)—N-[(3aR,4S,6aS)-2-benzyloctahydrocyclopenta[c]pyrrol-4-yl]-2-phenylpropanamide] | – | inhibition at 10 µM: 27%
8 | CN[C@@H](CC(C)C)C(=O)N[C@@H]1CC[C@H]2CN(S(=O)(=O)c3cccc(F)c3)C[C@H]21 [Example 443, N^1-{(3aS,4R,6aR)-2-[(3-fluorophenyl)sulfonyl]octahydrocyclopenta[c]pyrrol-4-yl}-N^2-methyl-L-leucinamide] | 7.68 | –
9 | CC(=O)N(C)[C@@H](CC(C)C)C(=O)N[C@H]1CC[C@H]2CN(Cc3cccc(C(F)(F)F)c3)C[C@H]21 [Example 175, N^2-acetyl-N^2-methyl-N^1-{(3aS,4S,6aR)-2-[3-(trifluoromethyl)benzyl]octahydrocyclopenta[c]pyrrol-4-yl}-L-leucinamide] | 1.5 | –
10 | CC[C@@H](C(=O)N[C@H]1CC[C@@H]2CN(Cc3ccccc3)C[C@@H]21)c1ccccc1 [Example 36, (2R)—N-[(3aR,4S,6aS)-2-benzyloctahydrocyclopenta[c]pyrrol-4-yl]-2-phenylbutanamide] | – | inhibition at 10 µM: 44%
11 | CCN[C@@H](CC(C)(C)C)C(=O)N[C@H]1CC[C@@H]2CN(S(=O)(=O)c3ccc(C(F)(F)F)cc3)C[C@@H]21 [Example 477, N^2-ethyl-4-methyl-N^1-((3aR,4S,6aS)-2-{[4-(trifluoromethyl)phenyl]sulfonyl}octahydrocyclopenta[c]pyrrol-4-yl)-L-leucinamide] | 1.88 | –
12 | O=C(N[C@H]1CC[C@H]2CN(S(=O)(=O)c3cccc(C(F)(F)F)c3)C[C@H]21)C(C1CCCCC1)C1CCCCC1 [Example 205, 2,2-dicyclohexyl-N-((3aS,4S,6aR)-2-{[3-(trifluoromethyl)phenyl]sulfonyl}octahydrocyclopenta[c]pyrrol-4-yl)acetamide] | 3.4 | –
13 | CCC[C@H](NC)C(=O)N[C@H]1CC[C@@H]2CN(S(=O)(=O)c3ccc(Cl)c(Cl)c3)C[C@@H]21 [Example 542, N^1-{(3aR,4S,6aS)-2-[(3,4-dichlorophenyl)sulfonyl]octahydrocyclopenta[c]pyrrol-4-yl}-N^2-methyl-L-norvalinamide] | 2.36 | –
14 | CN[C@@H](CC(C)C)C(=O)N[C@@H]1CC[C@@H]2CN(S(=O)(=O)c3ccc(C(F)(F)F)cc3)C[C@@H]21 [Example 421, N^2-methyl-N^1-((3aR,4R,6aS)-2-{[4-(trifluoromethyl)phenyl]sulfonyl}octahydrocyclopenta[c]pyrrol-4-yl)-L-leucinamide] | 2.56 | –
15 | CN(C(=O)OC(C)(C)C)C(Cc1ccccc1)C(=O)NC1CCC2CN(S(=O)(=O)c3cccc(C(F)(F)F)c3)CC21 [Example 270, N-(tert-butoxycarbonyl)-N-methyl-N-((3aR,4S,6aS)-2-{[3-(trifluoromethyl)phenyl]sulfonyl}octahydrocyclopenta[c]pyrrol-4-yl)-L-phenylalaninamide] | 0.77 | –
16 | O=C(N[C@@H]1CC[C@H]2CN(Cc3ccccc3)C[C@H]21)C(Cc1ccccc1)c1ccccc1 (stereo partly drawn) [Example 25, N-[(3aS,4R,6aR)-2-benzyloctahydrocyclopenta[c]pyrrol-4-yl]-2,3-diphenylpropanamide] | – | IC50 [2]: 3.7 µM

Second part, led by results:

Row | IC50 [1] [µM] | SMILES | other results
17 | 0.78 | CCC[C@H](NC)C(=O)N[C@H]1CC[C@@H]2CN(S(=O)(=O)c3ccc(C(F)(F)F)cc3Cl)C[C@@H]21 [Example 552, N^1-((3aR,4S,6aS)-2-{[2-chloro-4-(trifluoromethyl)phenyl]sulfonyl}octahydrocyclopenta[c]pyrrol-4-yl)-N^2-methyl-L-norvalinamide] | –
18 | 3.12 | CC(C)N[C@@H](CC(C)(C)C)C(=O)N[C@H]1CC[C@@H]2CN(c3ccc(C(F)(F)F)cn3)C[C@@H]21 [Example 490, N^2-isopropyl-4-methyl-N^1-{(3aR,4S,6aS)-2-[5-(trifluoromethyl)pyridin-2-yl]octahydrocyclopenta[c]pyrrol-4-yl}-L-leucinamide] | –
19 | 2.15 | CCC[C@@H](C(=O)N[C@H]1CC[C@@H]2CN(Cc3ccc(C(F)(F)F)cc3)C[C@@H]21)N(C)C(=O)OC(C)(C)C [Example 314, tert-butyl methyl((S)-1-oxo-1-((3aR,4S,6aS)-2-(4-(trifluoromethyl)benzyl)octahydrocyclopenta[c]pyrrol-4-ylamino)pentan-2-yl)carbamate] | –
20 | 3.19 | CC(C)(C)C[C@H](N)C(=O)N[C@H]1CC[C@@H]2CN(c3ccc(C(F)(F)F)cn3)C[C@@H]21 [Example 440, 4-methyl-N^1-{(3aR,4S,6aS)-2-[5-(trifluoromethyl)pyridin-2-yl]octahydrocyclopenta[c]pyrrol-4-yl}-L-leucinamide] | –
21 | 5.24 | CC(C)(C)CN[C@H]1CC[C@@H]2CN(S(=O)(=O)c3cccc(C(F)(F)F)c3)C[C@@H]21 [Example 282, (3aR,4S,6aS)—N-neopentyl-2-{[3-(trifluoromethyl)phenyl]sulfonyl}octahydrocyclopenta[c]pyrrol-4-amine] | –
22 | 1.16 | CN[C@@H](CC(C)(C)C)C(=O)N[C@@H]1CC[C@H]2CN(S(=O)(=O)c3ccc(C(F)(F)F)cc3)C[C@H]21 [Example 417, N^2,4-dimethyl-N^1-((3aS,4R,6aR)-2-{[4-(trifluoromethyl)phenyl]sulfonyl}octahydrocyclopenta[c]pyrrol-4-yl)-L-leucinamide] | –
23 | 2.69 | CCC[C@H](NC)C(=O)N1C[C@H]2CC[C@H](NC(=O)C(c3ccc(F)cc3)c3ccc(F)cc3)[C@H]2C1 [Example 460, 2,2-bis(4-fluorophenyl)-N-[(3aR,4S,6aS)-2-(N-methyl-L-norvalyl)octahydrocyclopenta[c]pyrrol-4-yl]acetamide] | –
24 | 1.67 | CCC[C@H](NC)C(=O)N[C@H]1CC[C@@H]2CN(S(=O)(=O)c3cccc4ccccc34)C[C@@H]21 [Example 540, N^2-methyl-N^1-[(3aR,4S,6aS)-2-(1-naphthylsulfonyl)octahydrocyclopenta[c]pyrrol-4-yl]-L-norvalinamide] | –
25 | 0.69 | CC(C)C[C@@H](C(=O)N[C@@H]1CC[C@H]2CN(S(=O)(=O)c3ccc(C(F)(F)F)cc3)C[C@H]21)N(C)C(=O)OC(C)(C)C [Example 324, tert-butyl methyl((S)-4-methyl-1-oxo-1-((3aS,4R,6aR)-2-(4-(trifluoromethyl)phenylsulfonyl)octahydrocyclopenta[c]pyrrol-4-ylamino)pentan-2-yl)carbamate] | –
26 | 0.6 | CC(C)C[C@H](NC(=O)OC(C)(C)C)C(=O)N[C@@H]1CC[C@@H]2CN(Cc3cccc(C(F)(F)F)c3)C[C@@H]21 (relative stereo) [Example 137, N^2-(tert-butyloxycarbonyl)-N^1-{(3aR*,4R*,6aS*)-2-[3-(trifluoromethyl)benzyl]octahydrocyclopenta[c]pyrrol-4-yl}-L-leucinamide] | –
27 | 9.6 | CCC[C@H](NS(C)(=O)=O)C(=O)N[C@H]1CC[C@@H]2CN(Cc3ccc(C(F)(F)F)cc3)C[C@@H]21 [Example 521, N^2-(methylsulfonyl)-N^1-{(3aR,4S,6aS)-2-[4-(trifluoromethyl)benzyl]octahydrocyclopenta[c]pyrrol-4-yl}-L-norvalinamide] | –
28 | 1.77 | CN[C@@H](CC(C)(C)C)C(=O)N(CC1CC1)[C@H]1CC[C@@H]2CN(S(=O)(=O)c3ccc(C(F)(F)F)cc3)C[C@@H]21 [Example 436, N^1-(cyclopropylmethyl)-N^2,4-dimethyl-N^1-((3aR,4S,6aS)-2-{[4-(trifluoromethyl)phenyl]sulfonyl}octahydrocyclopenta[c]pyrrol-4-yl)-L-leucinamide] | –
29 | 1 | O=C(N[C@H]1CC[C@H]2CN(Cc3ccc(F)cc3)C[C@H]21)C(C1CCCCC1)C1CCCCC1 [Example 56, 2,2-dicyclohexyl-N-[(3aS,4S,6aR)-2-(4-fluorobenzyl)octahydrocyclopenta[c]pyrrol-4-yl]acetamide] | –
30 | 5.28 | CCN[C@@H](CC(C)C)C(=O)N[C@H]1CC[C@@H]2CN(Cc3cccc(C(F)(F)F)c3)C[C@@H]21 [Example 366, N^2-ethyl-N^1-{(3aR,4S,6aS)-2-[3-(trifluoromethyl)benzyl]octahydrocyclopenta[c]pyrrol-4-yl}-L-leucinamide] | –
